Measured values as given in publication PMC3345832, “EROD and MROD as Markers of Cytochrome P450 1A Activities in Hepatic Microsomes from Entire and Castrated Male Pigs” (Sensors (Basel, Switzerland), 2009).
pKi: −log10 of the molar value. Where two headings read alike, the source gives them in different places. One block for each compound: values may come before it.

Experiments:
[1] = system: porcine liver microsomes (EROD); experiment: Enzyme kinetics of resorufin formation from 7-ethoxyresorufin (EROD) in hepatic microsomes; assay type: in vitro ADME, pig; conditions: 95% confidence interval
Experimental: (§1) Incubation mixtures contained microsomal protein (0.2 mg), phosphate buffer (pH 7.4, 50 mM) and substrate (2 μM; 7-ethoxyresofurin for EROD activity or 7-methoxyresofurin for MROD activity). Reactions were started by the addition of 1 mM NADPH. The reaction mixture, in a final volume of 500 μL, was incubated in a water bath at 37 °C for 5 min. Reactions were terminated with ice-cold 100% methanol (500 μL), followed by centrifugation at 7,500 × g for 5 min. Resorufin concentrations in the supernatants were measured with HPLC the same day as described above. EROD and MROD activities were expressed as pmol of resorufin per milligram protein and minute.
(§2) The studies were performed by using two pools of microsomes from six entire (pool 1) and six castrated male pigs (pool 2). For the kinetic studies, EROD and MROD activities were determined over the substrate concentration range from 0.0156 to 3.0 μM. […] The final concentration of DMSO in the incubations was below 0.5%.
(§3) Michaelis-Menten parameters (Km and Vmax values) and inhibition constants (Ki) were determined by a GraphPad Prism version 4.0 for Windows, GraphPad Software (San Diego California, USA). Data were additionally assayed by a SigmaPlot Enzyme Kinetics 1.3 software. Visual analysis of Eadie-Hofstee plots was used to categorise enzyme kinetics as mono- or biphasic, i.e. whether one or more enzymes participate in the reaction. When Eadie-Hofstee plots indicated monophasic kinetics, the following equation was applied to estimate kinetic parameters: V=(Vmax*S)/(Km+S); when Eadie-Hofstee plots indicated biphasic kinetics, the following equation was applied: V=(Vmax1*S)/(Km1+S)+ (V max2*S)/(Km2+S).

[2] = system: EROD activity (7-ethoxyresorufin O-deethylation); experiment: as above; assay type: in vitro ADME, pig; conditions: male, pig, 95% confidence interval
Experimental: as §1, §2, §3

[3] = system: porcine liver microsomes (EROD); set-up: method as in Messina et al. [6]; conditions: ref Messina et al. [6]; cited from earlier work
[4] = system: porcine liver microsomes (MROD); conditions: cited from earlier work
[5] = system: porcine liver microsomes (MROD); conditions: 95% confidence interval
CYP1A (EROD activity) = experiment: in vitro; conditions: male, pig, substrate 0.25 to 2 µM
Experimental: as §1
(§4) The studies were performed by using two pools of microsomes from six entire (pool 1) and six castrated male pigs (pool 2). […] For the inhibition study, the substrate range was from 0.25 to 2 µM. […] The inhibitors were dissolved in DMSO, and the same volume of DMSO was added to the control incubations. The final concentration of DMSO in the incubations was below 0.5%. All inhibitors were added before the addition of the substrate. […] Inhibition is expressed as the percent of the corresponding incubation control.
(§5) Michaelis-Menten parameters (Km and Vmax values) and inhibition constants (Ki) were determined by a GraphPad Prism version 4.0 for Windows, GraphPad Software (San Diego California, USA). Data were additionally assayed by a SigmaPlot Enzyme Kinetics 1.3 software. […] When Eadie-Hofstee plots indicated monophasic kinetics, the following equation was applied to estimate kinetic parameters: V=(Vmax*S)/(Km+S); when Eadie-Hofstee plots indicated biphasic kinetics, the following equation was applied: V=(Vmax1*S)/(Km1+S)+ (V max2*S)/(Km2+S).

CYP1A (MROD activity) = experiment: in vitro; conditions: male, pig, pH 7.4, Ki
Experimental: as §1, §4, §5

[6] = system: MROD activities in porcine liver microsomes (CYP1A)
Experimental: as §1, §4, §5

[7] = system: EROD activities in porcine liver microsomes (CYP1A); conditions: for EROD activity, % of the control values: 20 μM inhibitor, microsomes from entire and castrated male pigs; for Ki, EROD: substrate 0.25 to 2 µM
Experimental: as §1, §4, §5

[8] = Stability of resorufin in incubation supernatants; assay type: physicochemical
Experimental: The stability was assessed by measuring resorufin in the supernatant (n=8) stored in +4 °C and protected from light for several days and measured at days 0, 1, 2, 3, 5 and 8. A pool of microsomes used for the stability study was previously used for study on linearity with microsomal protein. Resorufin concentrations in those samples varied from 0.9 to 8.1 pmol/mL. Stability of resorufin stored in room temperature was assessed using four samples with resorufin concentrations from 1.5 to 2.6 pmol/mL.

[9] = 20 μM inhibitor, microsomes from entire and castrated male pigs
[10] = microsomes from castrated pigs, substrate 0.25 to 2 µM
[11] = microsomes from entire male pigs, substrate 0.25 to 2 µM

Compound: CCOc1ccc2nc3ccc(=O)cc-3oc2c1 [7-ethoxyresorufin]
Vmax (CI), EROD high-affinity component ([1]; castrated male pigs): 7.3 (5.5 – 9.0) pmol/min/mg | Vmax (CI), EROD low-affinity component ([1]; castrated male pigs): 15.2 (12.9 – 17.6) pmol/min/mg | Vmax (CI), EROD high-affinity component ([1]; entire male pigs): 5.9 (3.1 – 8.6) pmol/min/mg | Vmax (CI), EROD low-affinity component ([1]; entire male pigs): 11.7 (9.6 – 13.8) pmol/min/mg | Km at 5 min ([2]; liver microsomes (pool 1, six entire male pigs), pH 7.4, entire male pigs, read-out: Km (CI), EROD high-affinity component): 0.01 µM | Km at 5 min ([2]; liver microsomes (pool 1, six entire male pigs), pH 7.4, entire male pigs, read-out: Km (CI), EROD low-affinity component): 0.54 µM | Km at 5 min ([2]; liver microsomes (pool 2, six castrated male pigs), pH 7.4, castrated male pigs, read-out: Km (CI), EROD high-affinity component): 0.01 µM | Km at 5 min ([2]; liver microsomes (pool 2, six castrated male pigs), pH 7.4, castrated male pigs, read-out: Km (CI), EROD low-affinity component): 1.25 µM | Km [3]: 0.64 µM

Compound: Cc1c2ccncc2c(C)c2c1[nH]c1ccccc12 [Ellipticine, ellipticine]
Ki at 5 min (CYP1A (EROD activity); pH 7.4, Ki, microsomes from castrated pigs): 21 nM | Ki at 5 min (CYP1A (EROD activity); pH 7.4, Ki, microsomes from entire male pigs): 17 nM | Ki at 5 min (CYP1A (MROD activity); [10]): 19 nM | Ki at 5 min (CYP1A (MROD activity); [11]): 24 nM | MROD activity, % of the control values [6, 9]: 14–16% | EROD activity, % of the control values [7]: 8–10%

Compound: Cc1nc2c([nH]1)c(=O)n(C)c(=O)n2Cc1ccco1 [Furafylline, furafylline]
Ki at 5 min (CYP1A (MROD activity); [10]): […] | Ki at 5 min (CYP1A (MROD activity); [11]): […] | MROD activity, % of the control values ([6]; 100 μM inhibitor, pre-incubated 10 min with NADPH, entire and castrated male pigs): 55–61% | Inhibition of MROD activity without pre-incubation ([6]; no pre-incubation of microsomes and inhibitor with NADPH (data not shown)): No inhibition | Effect on EROD activities ([7]; 10-100 μM, pre-incubated with microsomes and NADPH): did not affect EROD activities | Ki, EROD ([7]; microsomes from castrated pigs): no ^* | Ki, EROD ([7]; microsomes from entire male pigs): no ^*

Compound: O=c1ccc2nc3ccc(O)cc3oc-2c1 [Resorufin]
Time stable in supernatants ([8]; stored at 4 °C under dark conditions): at least 5 days | Time stable in supernatants ([8]; stored at room temperature): at least 1 day

More lines, main results first:

Vmax (CI), MROD ([5]; castrated male pigs): 2.6 (2.5 – 2.8) pmol/min/mg | Vmax (CI), MROD ([5]; entire male pigs): 0.8 (0.7 – 0.9) pmol/min/mg
Compound: COc1ccc2nc3ccc(=O)cc-3oc2c1 [7-methoxyresorufin]
Km [4]: 2.2 µM

Ki at 5 min (CYP1A (EROD activity); liver microsomes (pool 1, six entire male pigs), pH 7.4, probe 7-ethoxyresorufin, 0.25 to 2 µM, Ki, microsomes from entire male pigs): 31 nM | Ki at 5 min (CYP1A (EROD activity); liver microsomes (pool 2, six castrated male pigs), pH 7.4, probe 7-ethoxyresorufin, 0.25 to 2 µM, Ki, microsomes from castrated pigs): 96 nM | Ki at 5 min (CYP1A (MROD activity)): 14 nM | MROD activity, % of the control values [6, 9]: 30% | pKi ([6]; male, pig, 5 min, pH 7.4): 7.74 | EROD activity, % of the control values [7]: 19–23%
Compound: O=c1cc(-c2ccccc2)oc2c1ccc1ccccc12 [ANF, α-naphthoflavone]
